According to patent publication US20260284011A1, “COMPOUNDS FOR RESTORING SUSCEPTIBILITY TO BETA-LACTAM ANTIBIOTICS” (UNIVERSITY OF NOTRE DAME DU LAC, priority 2023, published 2026):

Experiments:
NRS144 strain = test: MIC of the inducer CBAP; format: cell-based, Staphylococcus aureus
[1] = test system: modified bla operons (pCN52RI, pCN52RI-venus, pCN52RI-mCherry); test: Induction of fluorescent reporters of the bla operon by CBAP; format: cell-based, S. aureus NRS144
Source text: FIG. 4. Comparison of the fluorescence intensity produced by S. aureus NRS144 strains harboring pCN52RI, pCN52RI-venus and pCN52RI-mCherry. Each fluorescent protein was induced by the β-lactam antibiotic CBAP. The ratios of fluorescence in the presence of CBAP to that in the absence of it were 3, 10 and 5 for GFP, Venus, and mCherry, respectively. Data were derived from four independent assays.
(§1) Live-Cell Fluorescent Assay in Discovery and Mechanism of Action. We conceived of fluorescent constructs in the bla operon, for the purpose of screening (FIG. 2a). We removed the gene for the β-lactamase (blaZ) and put in its place individually the genes for the Green Fluorescent Protein (GFP), Venus (a yellow-fluorescent protein) or mCherry (a red-fluorescent protein) in the template plasmid pCN52. The three plasmids were named pCN52RI, pCN52RI-Venus and pCN52RI-mCherry, respectively. The genes for the fluorescent proteins were transcribed under the promoter of the blaZ gene and were regulated by the proteins BlaR and BlaI, as is the case for the wild-type bla operon.
(§2) We transformed separately S. aureus NRS144—a laboratory strain that accepts a foreign gene and harbors neither the bla nor the mec operons—with each of these plasmids. […] When induced, the fluorescent protein is produced and is detected (akin to expression of the resistance genes blaZ or mecA in typical MSSA and MRSA). […] The transformed strains were grown in tryptic soy broth medium for overnight culture and strain maintenance and incubated in cation-adjusted Mueller-Hinton broth medium for inhibitor screening in a 96-well microplate format. The culture without CBAP addition was the negative control. In order to select a desirable reporter construct, we compared the intensity of the fluorescence produced from each construct at the wavelengths given in FIG. 2a using the Cytation-5 multi-mode microplate reader. Among the three constructs, pCN52RI-Venus produced the best fluorescence intensity and pCN52RI-mCherry was the second best (FIG. 4).
Construction of the fluorescent-reporter systems. […]

BlaR = BlaR (Staphylococcus aureus, UniProt P18357); test: Live-cell fluorescent assay for BlaR inhibition (Venus reporter); format: cell-based, S. aureus NRS144pCN52RI-Venus; conditions: compound at 100 mg/L^−1; CBAP 10 mg·L^−1; fluorescence after 2 h
Source text: as §1, §2
(§3) The collection of the 100 compounds from the in-silico search was screened against S. aureus NRS144pCN52RI-Venus. The screening strategy was as follows. Bacteria grown to OD600 of 0.25 were exposed concurrently to CBAP (10 mg·L^−1) and the test compound (100 mg·L^−1). Fluorescence was recorded after two hours of incubation. OD600 values were also recorded to identify compounds with inherent antibacterial activity. Compound 1 (Chart 1) emerged—82% diminished fluorescence as an indication of the extent of BlaR inhibition—as a suitable template for structure elaboration. This effort led to the synthesis of several dozen benzimidazole and imidazole compounds. The progression of the iterative design is depicted in Chart 1 for four compounds, culminating in 4. […] The X-ray structures for the complexes of compounds 2 (non-covalent) and 4 (covalent) with the BlaR sensor domain are shown respectively in FIG. 2b (2.0 Å resolution) and FIG. 2c (1.97 Å resolution). Compound 4 makes a covalent bond with the catalytic Ser389 and creates a network of hydrogen bonds with the BlaR active site (FIG. 2c).
(§4) Fluorescent assay for screening of BlaR potential inhibitors. A 3-mL portion of lysogeny broth (LB) medium was inoculated with NRS144pCN52RI Venus from frozen stocks and grown overnight at 37° C. The overnight culture was then diluted 1:150 fold with fresh LB containing […] of erythromycin and incubated at 37° C. to an OD600 of 0.3, at which point fluorescence was induced by the addition of CBAP to a final concentration of 10 μg·mL^−1. The culture was aliquoted (99 L) into 96-well plate and 1 L of inhibitor solution (1 mg·mL^−1 in DMSO) was added to each well. Negative control (DMSO without CBAP) and positive control (CBAP without inhibitor) were included. The plate was incubated at 30° C. for 2 h with intermittent shaking. Fluorescence and OD600 measurements were taken by a Cytation-5 multimode microplate reader. Percent inhibition of BlaR and bacterial growth were calculated using absorbance unit (AU) and OD600 values of each sample entered into this formula: […]

[2] = test system: S. aureus NRS144pCN52RI-Venus; test: Bacterial growth inhibition (OD600) in the fluorescent screening assay; format: cell-based, Staphylococcus aureus; conditions: compound at 100 mg/L^−1; OD600 after 2 h
Protocol: as §3, §4

S. aureus = test: Potentiation of β-lactams by cyclic boronate β-lactamase inhibitors; format: cell-based, Staphylococcus aureus

Sequence of BlaR (P18357 whole entry): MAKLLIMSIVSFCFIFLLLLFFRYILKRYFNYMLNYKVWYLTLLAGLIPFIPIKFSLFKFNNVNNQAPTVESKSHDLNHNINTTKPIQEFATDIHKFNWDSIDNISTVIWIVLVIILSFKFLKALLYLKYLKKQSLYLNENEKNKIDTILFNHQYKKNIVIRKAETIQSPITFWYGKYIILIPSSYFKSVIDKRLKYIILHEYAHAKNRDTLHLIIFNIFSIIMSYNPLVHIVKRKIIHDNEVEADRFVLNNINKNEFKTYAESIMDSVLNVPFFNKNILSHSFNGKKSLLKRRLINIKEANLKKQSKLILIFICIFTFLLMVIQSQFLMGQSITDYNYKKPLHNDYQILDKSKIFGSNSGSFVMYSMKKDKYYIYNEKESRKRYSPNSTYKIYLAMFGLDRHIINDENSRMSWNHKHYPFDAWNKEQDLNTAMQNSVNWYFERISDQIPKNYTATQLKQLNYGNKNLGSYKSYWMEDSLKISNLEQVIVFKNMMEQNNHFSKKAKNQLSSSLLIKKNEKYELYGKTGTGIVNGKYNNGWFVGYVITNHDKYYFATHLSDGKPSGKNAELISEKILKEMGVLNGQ

Compound | % Inhibition of BlaR (BlaR) | % Inhibition of bacterial growth [2] | other results
2-(2-carboxyphenyl)-benzoyl-6-aminopenicillanic acid [CBAP] |  |  | minimal-inhibitory concentration (MIC) (NRS144 strain): 64 µg/mL; ratio of fluorescence in the presence of CBAP to that in the absence ([1]; GFP (pCN52RI)): 3; ratio of fluorescence in the presence of CBAP to that in the absence ([1]; Venus (pCN52RI-venus)): 10; ratio of fluorescence in the presence of CBAP to that in the absence ([1]; mCherry (pCN52RI-mCherry)): 5
N#CCCSc1nc2ccc(C#N)cc2n1Cc1ccc(C(F)(F)F)cc1C(F)(F)F [Compound 36] | 90% | 40% | 
COC(=O)c1ccc2nc(SCCC#N)n(Cc3ccc(C(F)(F)F)cc3C(F)(F)F)c2c1 [Compound 38] | 89% | 16% | 
COC(=O)c1ccc2nc(SCCCC#N)n(Cc3ccc(C(F)(F)F)cc3C(F)(F)F)c2c1 [Compound 39] | 92% | 25% | 
OCc1nc2ccccc2n1Cc1ccc(C(F)(F)F)cc1C(F)(F)F [Compound 40] | 67% | 25% | 
FC(F)(F)c1ccc(Cn2c(CBr)nc3ccccc32)c(C(F)(F)F)c1 [Compound 41] | 78% | 36% | 
OB(O)Cc1nc2ccccc2n1Cc1ccc(C(F)(F)F)cc1C(F)(F)F [Compound 42] | 99% | 82% | 
OB(O)CCc1nc2ccccc2n1Cc1ccc(C(F)(F)F)cc1C(F)(F)F [Compound 46] | 0% | 49% | 
NCc1cn(Cc2ccc(C(F)(F)F)cc2C(F)(F)F)c(=S)[nH]1 [Compound 48] | 50% | 90% | 
NSc1nc([C@H](O)[C@H](O)CO)cn1Cc1ccccc1 [Compound 52] | 33% | 0% | 
O=S(=O)(O)c1nccn1Cc1ccc(C(F)(F)F)cc1C(F)(F)F [Compound 54] | 18% | 0% | 
N#Cc1cn(Cc2ccc(C(F)(F)F)cc2C(F)(F)F)cn1 [Compound 55] | 0% | 0% | 
O=S(=O)(Cl)c1nc(CO)cn1Cc1ccc(C(F)(F)F)cc1C(F)(F)F [Compound 57] | 83% | 0% | 
OCc1cn(Cc2ccc(C(F)(F)F)cc2C(F)(F)F)c(Cl)n1 [Compound 58] | 43% | 0% | 
O=S(=O)(O)c1nc(CO)cn1Cc1ccc(C(F)(F)F)cc1C(F)(F)F [Compound 60] | 0% | 0% | 
NCc1cn(Cc2ccc(C(F)(F)F)cc2C(F)(F)F)c(S(=O)(=O)O)n1 [Compound 63] | 50% | 18% | 
CC(C)(C)OC(=O)NCc1cn(Cc2ccc(C(F)(F)F)cc2C(F)(F)F)c(S(=O)(=O)O)n1 [Compound 64] | 75% | 40% | 
COc1ccc(CSc2nc(CNC(=O)OCc3ccccc3)cn2Cc2ccc(C(F)(F)F)cc2C(F)(F)F)cc1 [Compound 65] | 19% | 0% | 
O=C(O)c1cn(Cc2ccc(C(F)(F)F)cc2C(F)(F)F)c(S(=O)(=O)O)n1 [Compound 72] | 11% | 0% | 
OCC1NC(=S)N(Cc2ccc(C(F)(F)F)cc2C(F)(F)F)N1 (stereo not drawn) [Compound 77] | 71% | 30% | 
OCc1nn(Cc2ccc(C(F)(F)F)cc2C(F)(F)F)c(=S)[nH]1 [Compound 78] | 70% | 56% | 
OCC1NC(=S)N(c2ccc(C(F)(F)F)cc2)N1 (stereo not drawn) [Compound 79] | 75% | 65% | 
NCCN[C@H]1CC[C@H](CC(=O)N[C@H]2Cc3cccc(C(=O)O)c3OB2O)CC1 [taniborbactam] |  |  | potentiation of the anti-S. aureus activities of MEM, OXA, FOX and CPT (S. aureus): no activity
O=C(O)C[C@@H]1CC[C@H](NC(=O)Cc2cccs2)B(O)O1 [vaborbactam] |  |  | potentiation of the anti-S. aureus activities of MEM, OXA, FOX and CPT (S. aureus): no activity
